Measured values from patent US12012467B2, “Small molecule DCN1 inhibitors and therapeutic methods using the same” (THE REGENTS OF THE UNIVERSITY OF MICHIGAN, priority 2017, dated 2024).
Counter-ions that a name gives are not always drawn. Numbered stars: 1 amine (or outer) side, 2 acyl side, 3 side chain; on linkers, the order of the positions; unused ones are H or OH. Square brackets hold non-standard residues; d marks the D form. Peptide text beside a SMILES is read from it. * marks the point of attachment. 2Nal = N[C@@H](Cc1ccc2ccccc2c1)C(=O)O; dLac = C[C@@H](O)C(=O)O; Lac = C[C@H](O)C(=O)O; CO = O=C([*:1])[*:2]; Tfa = O=C(C(F)(F)F)*; Moc = COC(=O)*; For = O=C*

target: DCN1 (Homo sapiens (Human), UniProt Q96GG9); assay: Competitive FP binding assay; conditions: not given
Sequence (Q96GG9 58-259): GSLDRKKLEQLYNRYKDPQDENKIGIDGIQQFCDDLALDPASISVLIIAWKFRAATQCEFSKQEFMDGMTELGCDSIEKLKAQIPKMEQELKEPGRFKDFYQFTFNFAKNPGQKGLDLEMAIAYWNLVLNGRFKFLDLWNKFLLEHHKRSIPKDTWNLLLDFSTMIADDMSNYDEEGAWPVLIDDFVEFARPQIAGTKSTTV
Procedure, shortened: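 FP competition with DCN1 in 100 mM phosphate pH 6.5, 0.02% Tween-20, 2% DMSO, probe 5 nM final. Equilibrated 30 min at room temperature with shaking. DCN1 was His6-tagged (uncleaved), expressed in E. coli Rosetta2 and purified by Ni-NTA and gel filtration.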

| Binding affinity to DCN1 (IC50 (nM)) | SMILES |
| --- | --- |
| precipitation | CC[C@H](C)[C@H](NC(=O)[C@H](Cc1ccc2ccccc2c1)NC(=O)C(F)(F)F)C(=O)N[C@@H](CCCCN)C(=O)N[C@@H](CC(C)C)C(N)=O [Example 137] (Tfa-[2Nal]IKL-NH2) |

same assay, conditions: bounds given in μM; read-out: Binding affinity to DCN1 (IC50)

| IC50 [µM] | SMILES |
| --- | --- |
| > 10 | CCC(=O)N[C@@H](Cc1ccc2ccccc2c1)C(=O)N[C@H](C(=O)N[C@@H](CN(C)C)C(=O)NC(c1ccc(F)cc1)c1ccc(F)cc1)C1CCCC1 [Example 139] |
| > 10 | CC[C@H](C)[C@H](NC(=O)[C@@H](N)Cc1ccc2ccccc2c1)C(=O)N[C@@H](CCCCN)C(=O)N[C@@H](CC(C)C)C(N)=O [Example 142] (H-[2Nal]IKL-NH2) |
| > 10 | CC[C@H](C)[C@H](NC(=O)[C@H](Cc1ccc2ccccc2c1)NC=O)C(=O)N[C@@H](CCCCN)C(=O)N[C@@H](CC(C)C)C(N)=O [Example 143] (For-[2Nal]IKL-NH2) |
| > 10 | CCC(=O)N[C@@H](Cc1ccc2ccccc2c1)C(=O)N[C@H](C(=O)N[C@@H](CCCCN)C(=O)N[C@@H](CN)c1ccccc1)C1CCCC1 [Example 151] |
| > 3 | CCC(=O)N[C@@H](Cc1ccc2ccccc2c1)C(=O)N[C@H](C(=O)N[C@@H](CCCCN)C(=O)N[C@H]1CNCc2ccccc21)C1CCCC1 [Example 159] |
| > 10 | CC[C@H](C)[C@H](NC(=O)[C@H](Cc1ccc2ccccc2c1)NC(=O)[C@@H](C)O)C(=O)N[C@@H](CCCCN)C(=O)N[C@@H](CC(C)C)C(N)=O [Example 167] (H-[dLac][2Nal]IKL-NH2) |
| > 10 | CC[C@H](C)[C@H](NC(=O)[C@H](Cc1ccc2ccccc2c1)NC(=O)[C@H](C)O)C(=O)N[C@@H](CCCCN)C(=O)N[C@@H](CC(C)C)C(N)=O [Example 168] (H-[Lac][2Nal]IKL-NH2) |
| > 10 | CC[C@H](C)[C@H](NC(=O)[C@H](Cc1ccc2ccccc2c1)NC(=O)NC)C(=O)N[C@@H](CCCCN)C(=O)N[C@@H](CC(C)C)C(N)=O [Example 169] ({NHMe-CO}-[2Nal]IKL-NH2) |
| > 10 | CC[C@H](C)[C@H](NC(=O)[C@H](Cc1ccc2ccccc2c1)NC(=O)OC)C(=O)N[C@@H](CCCCN)C(=O)N[C@@H](CC(C)C)C(N)=O [Example 170] (Moc-[2Nal]IKL-NH2) |
| > 1 | CCC(=O)N[C@@H](Cc1nc2ccc(C)cc2s1)C(=O)N[C@H](C(=O)N[C@@H](CCCCN)C(=O)N[C@@H]1CCOc2ccccc21)C1CCNCC1 [Example 180] |

| SMILES | IC50 [µM] |
| --- | --- |
| CCC(=O)N[C@H](Cc1ccc2ccccc2c1)C(=O)N[C@H](C(=O)N[C@@H](CCCCN)C(=O)NC(c1ccccc1)c1ccccc1)C1CCCC1 [Example 145] | > 10 |

same assay, conditions: read-out: Binding affinity to DCN1 (IC50 (nM))

| IC50 [µM] | SMILES |
| --- | --- |
| 1.75 | CCC(=O)N[C@@H](Cc1ccc2ccccc2c1)C(=O)N[C@H](C(=O)N[C@@H](CCCCN)C(=O)NC(c1ccc(F)cc1)c1ccc(F)cc1)C1CCCC1 [Example 138] |
| 0.483 | CCC(=O)N[C@@H](Cc1ccc2ccccc2c1)C(=O)N[C@H](C(=O)N[C@@H](CCCCN(C)C)C(=O)NC(c1ccc(F)cc1)c1ccc(F)cc1)C1CCCC1 [Example 140] |
| 0.871 | CCC(=O)N[C@@H](Cc1ccc2ccccc2c1)C(=O)N[C@H](C(=O)N[C@@H](CCCCN1CCOCC1)C(=O)NC(c1ccc(F)cc1)c1ccc(F)cc1)C1CCCC1 [Example 141] |
| 0.273 | CCC(=O)N[C@@H](Cc1ccc2ccccc2c1)C(=O)N[C@H](C(=O)N[C@@H](CCCCNC1CCN(C)CC1)C(=O)NC(c1ccc(F)cc1)c1ccc(F)cc1)C1CCCC1 [Example 144] |
| 0.464 | CCC(=O)N[C@@H](Cc1ccc2ccccc2c1)C(=O)N[C@H](C(=O)N[C@@H](CCCCN(C)C)C(=O)NC(c1ccccc1)c1ccccc1)C1CCCC1 [Example 146] |
| 0.354 | CCC(=O)N[C@@H](Cc1ccc2ccccc2c1)C(=O)N[C@H](C(=O)N[C@@H](CCCCNC1CCN(C)CC1)C(=O)NC(c1ccccc1)c1ccccc1)C1CCCC1 [Example 147] |
| 0.402 | CCC(=O)N[C@@H](Cc1ccc2ccccc2c1)C(=O)N[C@H](C(=O)N[C@@H](CCCCN)C(=O)N[C@@H]1CCCc2ccccc21)C1CCCC1 [Example 148] |
| 0.378 | CCC(=O)N[C@@H](Cc1ccc2ccccc2c1)C(=O)N[C@H](C(=O)N[C@@H](CCCCN)C(=O)N[C@@H]1CCOc2ccccc21)C1CCCC1 [Example 149] |
| 2 | CCC(=O)N[C@@H](Cc1ccc2ccccc2c1)C(=O)N[C@H](C(=O)N[C@@H](CCCCN)C(=O)N[C@H](CN)c1ccccc1)C1CCCC1 [Example 150] |
| 0.376 | CCC(=O)N[C@@H](Cc1nc2ccccc2s1)C(=O)N[C@H](C(=O)N[C@@H](CCCCN)C(=O)NC(c1ccccc1)c1ccccc1)[C@@H](C)CC [Example 152] |
| 1.9 | CCC(=O)N[C@@H](Cc1nc2cc(Cl)ccc2s1)C(=O)N[C@H](C(=O)N[C@@H](CCCCN)C(=O)NC(c1ccccc1)c1ccccc1)[C@@H](C)CC [Example 153] |
| 0.981 | CCC(=O)N[C@@H](Cc1nc2ccccc2o1)C(=O)N[C@H](C(=O)N[C@@H](CCCCN)C(=O)NC(c1ccccc1)c1ccccc1)[C@@H](C)CC [Example 154] |
| 1.2 | CCC(=O)N[C@@H](Cc1nc2cc(Cl)ccc2o1)C(=O)N[C@H](C(=O)N[C@@H](CCCCN)C(=O)NC(c1ccccc1)c1ccccc1)[C@@H](C)CC [Example 155] |
| 0.194 | CCC(=O)N[C@@H](Cc1nc2ccc(Cl)cc2o1)C(=O)N[C@H](C(=O)N[C@@H](CCCCN)C(=O)NC(c1ccccc1)c1ccccc1)[C@@H](C)CC [Example 156] |
| 0.265 | CCC(=O)N[C@@H](Cc1nc2ccc(OC)cc2o1)C(=O)N[C@H](C(=O)N[C@@H](CCCCN)C(=O)NC(c1ccccc1)c1ccccc1)[C@@H](C)CC [Example 157] |
| 0.307 | CCC(=O)N[C@@H](Cc1nc2ccc(Cl)cc2s1)C(=O)N[C@H](C(=O)N[C@@H](CCCCN)C(=O)NC(c1ccc(F)cc1)c1ccc(F)cc1)C1CCCC1 [Example 158] |
| 0.457 | CCC(=O)N[C@@H](Cc1ccc2ccccc2c1)C(=O)N[C@H](C(=O)N[C@@H](CCCCN)C(=O)N[C@@H]1CNCc2ccccc21)C1CCCC1 [Example 160] |
| 0.943 | CCC(=O)N[C@@H](Cc1ccc2ccccc2c1)C(=O)N[C@H](C(=O)N[C@@H](CCCCN)C(=O)N[C@@H](c1ccccc1)c1cn(CCN)nn1)C1CCCC1 [Example 161] |
| 0.797 | CCC(=O)N[C@@H](Cc1nc2ccc(Cl)cc2s1)C(=O)N[C@H](C(=O)N[C@@H](CCCCN)C(=O)N[C@H]1CNCc2ccccc21)C1CCCC1 [Example 162] |

| IC50 [µM] | SMILES |
| --- | --- |
| 0.103 | CCC(=O)N[C@@H](Cc1ccc2ccccc2c1)C(=O)N[C@H](C(=O)N[C@@H](CCCCN)C(=O)N[C@@H]1CCOc2cccc(Cl)c21)C1CCCC1 [Example 163] |
| 0.394 | CCC(=O)N[C@@H](Cc1ccc2ccccc2c1)C(=O)N[C@H](C(=O)N[C@@H](CCCCN)C(=O)N[C@@H]1CCOc2ccc(Cl)cc21)C1CCCC1 [Example 164] |
| 0.122 | CCC(=O)N[C@@H](Cc1ccc2ccccc2c1)C(=O)N[C@H](C(=O)N[C@@H](CCCCN)C(=O)N[C@@H]1CCOc2cc(Cl)ccc21)C1CCCC1 [Example 165] |
| 0.193 | CCC(=O)N[C@@H](Cc1ccc2ccccc2c1)C(=O)N[C@H](C(=O)N[C@@H](CCCCN)C(=O)N[C@@H]1CCOc2c(Cl)cccc21)C1CCCC1 [Example 166] |
| 0.168 | CCC(=O)N[C@@H](Cc1nc2ccc(Cl)cc2s1)C(=O)N[C@H](C(=O)N[C@@H](CCCCN)C(=O)N[C@@H]1CCOc2cc(Cl)ccc21)C1CCCC1 [Example 171] |
| 0.121 | CCC(=O)N[C@@H](Cc1nc2ccc(Cl)cc2s1)C(=O)N[C@H](C(=O)N[C@@H](CCCCN)C(=O)N[C@@H]1CCOc2cccc(Cl)c21)C1CCCC1 [Example 172] |
| 0.0581 | CCC(=O)N[C@@H](Cc1nc2ccc(C)cc2s1)C(=O)N[C@H](C(=O)N[C@@H](CCCCN)C(=O)NC(c1ccccc1)c1ccccc1)C1CCCC1 [Example 173] |
| 0.0775 | CCC(=O)N[C@@H](Cc1nc2ccc(CC)cc2s1)C(=O)N[C@H](C(=O)N[C@@H](CCCCN)C(=O)NC(c1ccccc1)c1ccccc1)C1CCCC1 [Example 174] |
| 0.0906 | CCC(=O)N[C@@H](Cc1nc2ccc(C)cc2s1)C(=O)N[C@H](C(=O)N[C@@H](CCCCN)C(=O)N[C@@H]1CCOc2ccccc21)C1CCCC1 [Example 175] |
| 0.079 | CCC(=O)N[C@@H](Cc1nc2ccc(CC)cc2s1)C(=O)N[C@H](C(=O)N[C@@H](CCCCN)C(=O)N[C@@H]1CCOc2ccccc21)C1CCCC1 [Example 176] |
| 0.079 | CCC(=O)N[C@@H](Cc1nc2ccc(CC)cc2s1)C(=O)N[C@H](C(=O)N[C@@H](CCCCN)C(=O)N[C@@H]1CNCc2ccccc21)C1CCCC1 [Example 177] |
| 0.596 | CCC(=O)N[C@@H](Cc1nc2ccc(C)cc2s1)C(=O)N[C@@H](CC1CCNCC1)C(=O)N[C@@H](CCCCN)C(=O)N[C@@H]1CCOc2ccccc21 [Example 178] |
| 0.133 | CCC(=O)N[C@@H](Cc1nc2ccc(C)cc2s1)C(=O)N[C@@H](Cc1ccccn1)C(=O)N[C@@H](CCCCN)C(=O)N[C@@H]1CCOc2ccccc21 [Example 179] |
| 0.176 | CCC(=O)N[C@@H](Cc1nc2ccc(C)cc2s1)C(=O)N[C@H](C(=O)N[C@@H](CCCCN)C(=O)N[C@@H]1CCOc2ccccc21)C1CCOCC1 [Example 181] |
| 0.375 | CCC(=O)N[C@@H](Cc1nc2ccc(C)cc2s1)C(=O)N[C@H](C(=O)N[C@@H](CCCCN)C(=O)N[C@@H]1CCOc2ccccc21)C(C)(C)O [Example 182] |
| 0.165 | CCC(=O)N[C@@H](Cc1nc2ccc(C)cc2s1)C(=O)N[C@@H](Cc1cccnc1)C(=O)N[C@@H](CCCCN)C(=O)N[C@@H]1CCOc2ccccc21 [Example 183] |
| 0.149 | CCC(=O)N[C@@H](Cc1nc2ccc(C)cc2s1)C(=O)N[C@@H](Cc1ccncc1)C(=O)N[C@@H](CCCCN)C(=O)N[C@@H]1CCOc2ccccc21 [Example 184] |
| 0.111 | CCC(=O)N[C@@H](Cc1nc2ccc(C)cc2s1)C(=O)N[C@@H](C[C@H]1CC[C@H](CN)CC1)C(=O)N[C@@H](CCCCN)C(=O)N[C@@H]1CCOc2ccccc21 [Example 185] |
